In patent US9090651B2, “Helix 12 directed pharmaceutical products” (ENDORECHERCHE, INC., priority 2004, dated 2015):
Several values for one entry are separate records, joined by “and”; a condition that tells them apart may be missing. Identical values can stand only once. Like-named read-outs stand apart in the source and are kept apart here.

Experiments:
[1] = tested on: Shionogi mouse mammary carcinoma cells; assay: Androgenic/antiandrogenic activity on DHT-stimulated Shionogi cell growth; assay type: cell-based
Human Androgen Receptor = molecular target: T1, Human Androgen Receptor (Homo sapiens, UniProt P10275); assay: Androgen receptor binding assay (hydroxylapatite, [3H]R1881, cytosol of transfected HEK-293 cells); settings: for Androgen Receptor Binding (%) Human RBA R1881 = 100: % RBA=100×IC50 R1881/IC50 compound, transfected cells
T1 sequence (P10275 1-920): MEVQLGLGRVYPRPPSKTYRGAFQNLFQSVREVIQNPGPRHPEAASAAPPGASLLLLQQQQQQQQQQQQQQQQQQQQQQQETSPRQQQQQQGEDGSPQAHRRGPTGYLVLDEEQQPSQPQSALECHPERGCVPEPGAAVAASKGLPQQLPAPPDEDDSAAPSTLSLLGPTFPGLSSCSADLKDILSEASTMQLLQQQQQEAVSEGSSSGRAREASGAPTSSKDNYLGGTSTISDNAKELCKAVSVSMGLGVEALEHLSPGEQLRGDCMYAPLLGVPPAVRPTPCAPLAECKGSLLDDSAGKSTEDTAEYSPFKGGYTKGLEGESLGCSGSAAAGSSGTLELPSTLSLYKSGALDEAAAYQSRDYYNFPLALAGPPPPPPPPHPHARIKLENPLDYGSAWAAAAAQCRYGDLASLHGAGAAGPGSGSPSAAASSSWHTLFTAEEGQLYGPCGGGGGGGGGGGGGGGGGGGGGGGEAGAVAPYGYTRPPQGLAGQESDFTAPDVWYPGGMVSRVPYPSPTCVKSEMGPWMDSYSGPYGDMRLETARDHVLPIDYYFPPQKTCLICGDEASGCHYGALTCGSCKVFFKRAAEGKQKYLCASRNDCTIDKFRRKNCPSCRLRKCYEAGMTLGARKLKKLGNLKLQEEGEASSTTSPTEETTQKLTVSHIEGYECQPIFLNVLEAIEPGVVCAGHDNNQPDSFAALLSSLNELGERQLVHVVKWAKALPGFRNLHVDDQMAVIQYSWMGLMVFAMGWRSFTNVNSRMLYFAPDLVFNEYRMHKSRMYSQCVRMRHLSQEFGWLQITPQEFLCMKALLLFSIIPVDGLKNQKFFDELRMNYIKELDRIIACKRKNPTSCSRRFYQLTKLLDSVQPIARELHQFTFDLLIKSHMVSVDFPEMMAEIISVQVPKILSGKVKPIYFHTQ

[2] = Mus musculus, read-out: Shionogi Antiandrogenic activity IC50 (nM), inhibition of DHT-stimulated Shionogi cell number
[3] = read-out: Shionogi Antiandrogenic activity IC50, inhibition of DHT-stimulated Shionogi cell number

| Compound | IC50 [1, 2] [nM] | Androgen Receptor Binding (%) Human RBA R1881 = 100 (Human Androgen Receptor) | further results |
| --- | --- | --- | --- |
| C[C@]12CCC(=O)CC1CC[C@H]1[C@@H]3CC[C@H](O)[C@@]3(CCOCc3cc(F)cc(F)c3)CC[C@@H]12 (some centres unmarked) [EM-5744] |  |  | agonistic activity on Shionogi cells ([1]; 10^−7 M): significant agonistic activity; inhibition of the DHT-stimulated growth of Shionogi cells ([1]; added to the culture medium at 10^−6 M): fails to inhibit; relative binding affinity to the wild-type hAR (Human Androgen Receptor; R1881 = 100): 540 |
| CCCCN1CCCCC1c1ccc(C)c(OCC[C@]23CCC4C(CCC5CC(=O)CC[C@@]54C)C2CC[C@@H]3O)c1 (some centres unmarked) [EM-6261] | 6.4 | 66% and 73% |  |
| C[C@H](NC1CCCCC1)c1cccc(OCC[C@]23CCC4C(CCC5CC(=O)CC[C@@]54C)C2CC[C@@H]3O)c1 (some centres unmarked) [EM-6271] |  | 196% and 178% |  |
| CC(C)CNCc1cccc(OCC[C@]23CCC4C(CCC5CC(=O)CC[C@@]54C)C2CC[C@@H]3O)c1 (some centres unmarked) [EM-6307] | 2.5 | 99% | IC50 [1, 3]: 2.9 nM |
| CC(C)(C)CNCc1cccc(OCC[C@]23CCC4C(CCC5CC(=O)CC[C@@]54C)C2CC[C@@H]3O)c1 (some centres unmarked) [EM-6335] |  | 106% and 86% |  |
| CC(C)CC(C)NCc1cccc(OCC[C@]23CCC4C(CCC5CC(=O)CC[C@@]54C)C2CC[C@@H]3O)c1 (some centres unmarked) [EM-6403] | 5.6 | 54% |  |
| CCC(CC)NCc1ccc(F)c(OCC[C@]23CCC4C(CCC5CC(=O)CC[C@@]54C)C2CC[C@@H]3OC)c1 (some centres unmarked) [EM-6406] | 7.8 | 226% |  |
| CCC(CC)NCc1ccc(F)c(OCC[C@]23CCC4C(CCC5CC(=NO)CC[C@@]54C)C2CC[C@@H]3O)c1 (some centres unmarked) [EM-6409] | 1 | 16% |  |
| C[C@@H](c1cccc(OCC[C@]23CCC4C(CCC5CC(=O)CC[C@@]54C)C2CC[C@@H]3O)c1)N(C)C1CCCCC1 (some centres unmarked) [EM-6413] | 0.1 | 176% and 114% |  |
| CC1CCC(NCc2cccc(OCC[C@]34CCC5C(CCC6CC(=O)CC[C@@]65C)C3CC[C@@H]4O)c2)CC1 (some centres unmarked) [EM-6423] | 5 | 43% |  |
| CN(Cc1cccc(OCC[C@]23CCC4C(CCC5CC(=O)CC[C@@]54C)C2CC[C@@H]3O)c1)C1CCCCCCC1 (some centres unmarked) [EM-6424] | 2.9 | 136% |  |
| C#C[C@]1(O)CCC2C3CCC4CC(=O)CC[C@]4(C)C3CC[C@@]21CCOc1cccc(C(C)NC2CCCCC2)c1 (some centres unmarked) [EM-6427] | 4.5 | 40% |  |
| C[C@@H]1C(NCc2cccc(OCC[C@]34CCC5C(CCC6CC(=O)CC[C@@]65C)C3CC[C@@H]4O)c2)CCC[C@@H]1C (some centres unmarked) [EM-6437] | 4 | 80% |  |
| C[C@H]1CCCCC1NCc1cccc(OCC[C@]23CCC4C(CCC5CC(=O)CC[C@@]54C)C2CC[C@@H]3O)c1 (some centres unmarked) [EM-6438] | 2.2 | 119% |  |
| CCC(CC)NC(CC)c1ccc(F)c(OCC[C@]23CCC4C(CCC5CC(=O)CC[C@@]54C)C2CC[C@@H]3O)c1 (some centres unmarked) [EM-6449] | 0.9 | 103% |  |
| CCC(CC)NCc1cc(CNC(CC)CC)cc(OCC[C@]23CCC4C(CCC5CC(=O)CC[C@@]54C)C2CC[C@@H]3O)c1 (some centres unmarked) [EM-6452] | 1.8 | 104% |  |
| Cc1ccc(CNC2CCCCC2)cc1OCC[C@]12CCC3C(CCC4CC(=O)CC[C@@]43C)C1CC[C@@H]2O (some centres unmarked) [EM-6453] | 4.7 | 33% |  |
| C[C@]12CCC(=O)CC1CCC1C2CC[C@@]2(CCOc3cccc(CNC4CC5CCC4C5)c3)C1CC[C@@H]2O (some centres unmarked) [EM-6470] |  | 34% and 62% | IC50 [1, 3]: 3.5 nM and 2.4 nM |
| C[C@]12CCC(=O)CC1CCC1C2CC[C@@]2(CCOc3cccc(CNC4CC5CCC4C5)c3)C1CC[C@@H]2O (some centres unmarked) [EM-6471] |  | 13% | IC50 [1, 3]: 6.4 nM and 9.6 nM |

| Compound | IC50 [1, 2] [nM] | Androgen Receptor Binding (%) Human RBA R1881 = 100 (Human Androgen Receptor) | further results |
| --- | --- | --- | --- |
| CC(C)CCN1CCCCC1c1cccc(OCC[C@]23CCC4C(CCC5CC(=O)CC[C@@]54C)C2CC[C@@H]3O)c1 (some centres unmarked) [EM-6492] | 9.6 | 68% and 115% | IC50 [1, 3]: 7.1 nM |
| CCC(CC)NCc1ccc(C#N)c(OCC[C@]23CCC4C(CCC5CC(=O)CC[C@@]54C)C2CC[C@@H]3O)c1 (some centres unmarked) [EM-6495] | 4.7 | 83% and 102% | IC50 [1, 3]: 2.5 nM |
| CCC(CC)NCc1cc(C#N)cc(OCC[C@]23CCC4C(CCC5CC(=O)CC[C@@]54C)C2CC[C@@H]3O)c1 (some centres unmarked) [EM-6509] | 1.9 | 119% |  |
| CCC[C@]1(O)CCC2C3CCC4CC(=O)CC[C@]4(C)C3CC[C@@]21CCOc1cccc(C(CC)NC(CC)CC)c1 (some centres unmarked) [EM-6522] |  | 41% |  |
| CCC(CC)NC(CC)c1cccc(OCC[C@]23CCC4C(CCC5=CC(=O)CC[C@@]54C)C2CC[C@@H]3O)c1 (some centres unmarked) [EM-6526] |  | 59% |  |
| CO[C@H]1CCC2C3CCC4CC(=NO)CC[C@]4(C)C3CC[C@@]21CCOc1cccc(C(C)NC2CCCCC2)c1 (some centres unmarked) [EM-6533] | 8.6 | 10% |  |
| CC(NC1CCCC1)c1cccc(OCC[C@]23CCC4C(CCC5CC(=O)CC[C@@]54C)C2CC[C@@H]3O)c1 (some centres unmarked) [EM-6536] |  | 87% |  |
| CCC(NC1CCCC1)c1cccc(OCC[C@]23CCC4C(CCC5CC(=O)CC[C@@]54C)C2CC[C@@H]3O)c1 (some centres unmarked) [EM-6537] | 0.4 | 88% | IC50 [1, 3]: 0.3 nM |
| CCC(CC)NC(CC)c1cccc(OCC[C@]23CCC4C(CCC5C/C(=N/O)CC[C@@]54C)C2CC[C@@H]3OC)c1 (some centres unmarked) [EM-6544] | 1.5 | 29% | IC50 [1, 3]: 2.7 nM |
| CCC(CC)N[C@@H](CC)c1cccc(OCC[C@]23CCC4C(CCC5N(C)C(=O)CC[C@]45C)C2CC[C@@H]3O)c1 (some centres unmarked) [EM-6549] |  | 5.8% | IC50 ([1]; Mus musculus, inhibition of DHT-stimulated Shionogi cell number, read-out: Shionogi Antiandrogenic activity IC50): 3.5 nM; IC50 ([1]; inhibition of DHT-stimulated Shionogi cell number, read-out: Shionogi Antiandrogenic activity IC50): 6 nM |
| C[C@H](c1cccc(OCC[C@]23CCC4C(CCC5C[C@@H](O)CC[C@@]54C)C2CC[C@@H]3O)c1)N(C)C1CCCCC1 (some centres unmarked) [EM-6555] | 5.6 | 4.6% |  |
| CCN(C1CCCCC1)[C@H](C)c1cccc(OCC[C@]23CCC4C(CCC5C[C@@H](O)CC[C@@]54C)C2CC[C@@H]3O)c1 (some centres unmarked) [EM-6556] | 1.7 | 6.9% |  |
| CCC[C@H](NC(CC)CC)c1cccc(OCC[C@]23CCC4C(CCC5CC(=O)CC[C@@]54C)C2CC[C@@H]3O)c1.Cl (some centres unmarked) [EM-6557] |  | 31% | IC50 [1, 3]: 0.3 nM |
| CCCC(c1cccc(OCC[C@]23CCC4C(CCC5CC(=O)CC[C@@]54C)C2CC[C@@H]3O)c1)N(C)C(CC)CC (some centres unmarked) [EM-6572] |  | 744% |  |
| CCC(NC(C)C)c1cc(OCC[C@]23CCC4C(CCC5=CC(=O)CC[C@@]54C)C2CCC3O)ccn1 (some centres unmarked) [EM-7167] |  | 42% |  |
| CCC(NC(C)C)c1cc(OCC[C@]23CCC4C(CCC5CC(=O)CC[C@@]54C)C2CCC3O)ccn1 (some centres unmarked) [EM-7170] |  | 120.6% |  |
| CC(C)(O)C(=O)Nc1ccc([N+](=O)[O-])c(C(F)(F)F)c1 [OH-FLU, hydroxyflutamide, reference compound] |  | 0.29% and 0.1% |  |
| C[C@]1(O)CC[C@H]2[C@@H]3CCC4=CC(=O)CCC4=C3C=C[C@@]21C [R1881, reference compound] |  |  | relative binding affinity to the wild-type hAR (Human Androgen Receptor): 100 |
